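Following 48 hours of exposure in 96-well plates, responses at five concentrations were used to interpolate endpoints linearly. GI50 = concentration required for 50% inhibition of growth. Definition used: TGI = concentration required for complete inhibition of growth.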

Holding throughout (assay): inhibition of tumour cell growth, NCI panel, 48 h
Test [1] deals with SF-295 CNS.
Test [2] has as its system LOX IMVI melanoma.
Test [3] concerns NCI-H522 lung.
Test [4] concerns K-562 leukemia.
Test [5] has as its system COLO 205 colon.
Test [6] relates to UACC-62 melanoma.
The subject of test [7] is MALME-3M melanoma.
For test [8], the system named is SK-MEL-28 melanoma.
Test [9] relates to UACC-257 melanoma.
The subject of test [10] is SNB-19 CNS.

For the compound `O=C(Cn1c(=O)c(-c2ccccc2)nc2ccccc21)c1cccnc1`, the GI50 in [1], in test [2], in test [3], in test [4], in [5] and in test [6] was > 100 µM in each case. For the same compound, the GI50 in test [7], in [8], in test [9] and in [10] was > 100 µM each time. Also, the TGI in [1], in test [2], in test [3], in [4], in test [5] and in test [6] was > 100 µM each time. The TGI in test [7], in test [8], in test [9] and in [10] was > 100 µM in each case.

Consider `Nc1nc2c(c3ncccc13)C(c1ccc(Cl)c(Cl)c1)Cc1ncccc1-2` (stereo not given), for which the GI50 in test [1] was 2.82 µM; in [2], 4.4 µM; in [3], 1.5 µM; in [4], 2.67 µM; in test [5] it was 2.65 µM; in [6], 2.28 µM. In addition, the GI50 in [7] was 8.94 µM; in [8] it was 4.07 µM; in [9] it was 13.2 µM; in test [10], 3.77 µM. The TGI in test [1] amounted to 7.94 µM; in test [2], 16.2 µM; in test [3] it was 5.1 µM; in test [4] it was 17.3 µM; in test [5] it was 7.3 µM; in test [6] it was 12.5 µM. In addition, the TGI in test [7] amounted to 26.3 µM; in test [8] it was 13.9 µM; in test [9] it was 26.4 µM; in test [10], 14.4 µM.

Regarding `CCNc1c(C(=O)N(CC)CC)c(=O)[nH]c2ncccc12`, the TGI in test [1], in test [2], in test [3], in test [4], in [5] and in test [6] was > 100 µM each time. The TGI in [7], in [8], in [9] and in [10] was > 100 µM each time.

Regarding `CN(C)/C=C/c1nnnn1-c1ccc(Cl)cc1`, the GI50 in test [1] is 19 µM; in test [2], 21.7 µM; in test [3], 25.2 µM; in test [4], 19.6 µM; in test [5], 28.2 µM; in [6], 8.22 µM. Also, the GI50 is 12.8 µM in test [7], 30.2 µM in test [8], 35.6 µM in test [9] and 29 µM in test [10]. Also, the TGI in test [1] was 36.7 µM; in test [2], > 100 µM; in [3], 64.8 µM; in [4], > 100 µM; in test [5] it was 58.7 µM; in test [6] it was 31.4 µM. The TGI in test [7] is 38.7 µM; in test [8], > 100 µM; in [9] it was > 100 µM; in test [10], 92.9 µM.

As to `Nc1c(C(=O)c2cccc(-c3ccc[n+]([O-])c3)c2)cnn1-c1ccc(F)cc1F`, the GI50 in test [1], in [2], in test [3], in [4], in test [5] and in test [6] was > 25 µM in each case. Moreover, the GI50 in test [7], in [8], in test [9] and in test [10] was > 25 µM each time. The TGI in test [1], in [2], in test [3], in test [4], in test [5] and in test [6] was > 25 µM each time. Besides, the TGI in test [7], in test [8], in test [9] and in test [10] was > 25 µM throughout.

Turning to `COc1ccc(Nc2ncccc2/C=C/C(=O)c2cc(OC)c(OC)c(OC)c2)cc1`, the GI50 in test [1] was 1.85 µM; in test [2] it was 1.23 µM; in [3], 0.36 µM; in [4], 0.783 µM; in test [5], 1.69 µM; in test [6], 1.56 µM. Also, the GI50 in test [7] is 1.4 µM; in [8] it was 1.37 µM; in test [9], 1.53 µM; in [10], 2.14 µM. In addition, the TGI turned out to be 5.59 µM in test [1]; 2.48 µM in test [2]; 1.64 µM in [3]; 3.51 µM in test [4]; 3.06 µM in test [5]; 3.3 µM in test [6]. The TGI in test [7] turned out to be 2.87 µM; in [8], 2.66 µM; in [9] it was 2.92 µM; in test [10], 6.33 µM.

`CC(C)COC(=O)N1N=NC2C3OC(CC3=O)C21` (stereo not given): the TGI in test [1], in test [2], in test [3], in test [4], in [5] and in test [6] was > 100 µM throughout. The TGI in test [7], in test [8], in test [9] and in test [10] was > 100 µM each time.

On to `CC(=O)O[C@H]1CC[C@@]2(C)C(CC[C@]3(C)C2CC[C@]2(C)Oc4c(C)cc(O)cc4C[C@@H]23)C1(C)C` (stereo not given in full), for which the TGI stood at 5.09 µM in test [1]; 23.8 µM in [2]; 21.5 µM in [3]; 29.3 µM in test [4]; 29.7 µM in test [5]; 23.7 µM in test [6]. Besides, the TGI amounted to 22.8 µM in test [7], 22.9 µM in test [8], 22.8 µM in test [9] and 14.4 µM in test [10].

The values above are taken from PubChem BioAssay (NCI).
